Assay results taken from PMC12621043, “Un-LOK-ing a New Approach for Conformational Selective Targeting of STK10 (LOK)” (ACS Medicinal Chemistry Letters, 2025).

Assays:
Experiment in all cases: DSF Tm panel
Assay type in all cases: binding
Details in all cases: 10 μM compound
BMP2KA = biological target: T1, BMP2KA (Homo sapiens, UniProt Q9NSY1)
T1 construct: purchased in-house DSF kinase panel (SGC-style construct names; the trailing letter is the construct ID)

MAP3K5A = biological target: T2, MAP3K5A (Homo sapiens, UniProt Q99683)
T2 construct: purchased in-house DSF kinase panel (SGC-style construct names; the trailing letter is the construct ID)

FGFR2A = biological target: T3, FGFR2A (Homo sapiens, UniProt P21802)
T3 construct: purchased in-house DSF kinase panel (SGC-style construct names; the trailing letter is the construct ID)

PKMYT1A = biological target: T4, PKMYT1A (Homo sapiens, UniProt Q99640)
T4 construct: purchased in-house DSF kinase panel (SGC-style construct names; the trailing letter is the construct ID)
T4 sequence (Q99640 75-362): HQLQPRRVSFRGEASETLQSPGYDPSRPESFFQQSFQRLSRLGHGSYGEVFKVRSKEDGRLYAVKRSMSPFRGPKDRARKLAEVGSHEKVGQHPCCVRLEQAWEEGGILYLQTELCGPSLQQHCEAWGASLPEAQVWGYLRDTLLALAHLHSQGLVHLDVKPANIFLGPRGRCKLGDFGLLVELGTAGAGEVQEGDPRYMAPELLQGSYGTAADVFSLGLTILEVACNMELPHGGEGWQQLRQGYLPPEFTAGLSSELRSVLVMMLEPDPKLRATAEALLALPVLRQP

EPHB3A = biological target: T5, EPHB3A (Homo sapiens, UniProt P54753)
T5 construct: purchased in-house DSF kinase panel (SGC-style construct names; the trailing letter is the construct ID)
T5 sequence (P54753 34-998): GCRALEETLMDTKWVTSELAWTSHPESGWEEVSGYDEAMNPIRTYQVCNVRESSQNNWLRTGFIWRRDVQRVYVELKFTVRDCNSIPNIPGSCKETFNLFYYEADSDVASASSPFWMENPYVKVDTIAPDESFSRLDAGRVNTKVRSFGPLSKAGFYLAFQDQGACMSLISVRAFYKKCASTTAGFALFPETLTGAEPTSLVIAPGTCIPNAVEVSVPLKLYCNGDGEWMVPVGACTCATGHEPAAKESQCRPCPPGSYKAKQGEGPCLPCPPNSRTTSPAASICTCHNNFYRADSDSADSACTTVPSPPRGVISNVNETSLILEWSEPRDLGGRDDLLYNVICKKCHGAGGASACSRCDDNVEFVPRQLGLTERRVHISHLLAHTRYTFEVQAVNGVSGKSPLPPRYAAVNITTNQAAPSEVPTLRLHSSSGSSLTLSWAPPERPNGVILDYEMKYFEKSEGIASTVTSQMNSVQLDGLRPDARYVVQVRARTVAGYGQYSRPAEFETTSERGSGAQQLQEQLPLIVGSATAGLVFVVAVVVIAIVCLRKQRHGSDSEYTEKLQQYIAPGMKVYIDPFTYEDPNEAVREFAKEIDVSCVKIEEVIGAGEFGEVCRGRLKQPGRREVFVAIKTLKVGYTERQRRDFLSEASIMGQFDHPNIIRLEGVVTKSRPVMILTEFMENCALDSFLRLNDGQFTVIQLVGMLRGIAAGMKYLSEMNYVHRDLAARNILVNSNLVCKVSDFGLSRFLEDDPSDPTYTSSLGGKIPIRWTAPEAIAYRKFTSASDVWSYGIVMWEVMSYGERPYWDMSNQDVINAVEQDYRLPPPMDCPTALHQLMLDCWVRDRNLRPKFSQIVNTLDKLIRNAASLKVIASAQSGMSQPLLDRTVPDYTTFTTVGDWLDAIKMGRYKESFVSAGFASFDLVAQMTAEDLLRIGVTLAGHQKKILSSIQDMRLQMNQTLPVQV

CSNK1DA = biological target: T6, CSNK1DA (Homo sapiens, UniProt P48730)
T6 construct: purchased in-house DSF kinase panel (SGC-style construct names; the trailing letter is the construct ID)
T6 sequence (P48730 1-294): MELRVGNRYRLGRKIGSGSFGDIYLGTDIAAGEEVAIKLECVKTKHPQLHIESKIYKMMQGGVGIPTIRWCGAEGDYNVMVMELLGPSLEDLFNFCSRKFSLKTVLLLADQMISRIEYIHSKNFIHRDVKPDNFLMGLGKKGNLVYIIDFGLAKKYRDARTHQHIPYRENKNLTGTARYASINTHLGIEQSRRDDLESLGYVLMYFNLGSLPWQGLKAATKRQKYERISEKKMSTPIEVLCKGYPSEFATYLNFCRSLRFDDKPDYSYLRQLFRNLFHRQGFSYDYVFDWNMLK

AAK1 (AAK1A) = biological target: T7, AAK1 (AAK1A) (Homo sapiens, UniProt Q2M2I8)
T7 construct: purchased in-house DSF kinase panel (SGC-style construct names; the trailing letter is the construct ID)

DYRK1AA = biological target: T8, DYRK1AA (Homo sapiens, UniProt Q13627)
T8 construct: purchased in-house DSF kinase panel (SGC-style construct names; the trailing letter is the construct ID)

MAPK9A = biological target: T9, MAPK9A (Homo sapiens, UniProt P45984)
T9 construct: purchased in-house DSF kinase panel (SGC-style construct names; the trailing letter is the construct ID)

GSG2A = biological target: T10, GSG2A (Homo sapiens, UniProt Q8TF76)
T10 construct: purchased in-house DSF kinase panel (SGC-style construct names; the trailing letter is the construct ID)
T10 sequence (Q8TF76 465-798): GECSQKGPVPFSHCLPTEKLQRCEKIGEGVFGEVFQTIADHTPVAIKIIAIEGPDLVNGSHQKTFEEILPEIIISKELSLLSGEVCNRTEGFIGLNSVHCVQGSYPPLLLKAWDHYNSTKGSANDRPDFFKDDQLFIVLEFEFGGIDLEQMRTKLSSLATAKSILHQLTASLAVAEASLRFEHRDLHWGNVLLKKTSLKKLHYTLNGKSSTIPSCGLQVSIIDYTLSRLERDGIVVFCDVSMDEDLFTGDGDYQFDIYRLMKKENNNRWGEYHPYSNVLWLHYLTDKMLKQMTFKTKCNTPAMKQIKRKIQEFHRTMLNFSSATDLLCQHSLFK

CLK1A = biological target: T11, CLK1A (Homo sapiens, UniProt P49759)
T11 construct: purchased in-house DSF kinase panel (SGC-style construct names; the trailing letter is the construct ID)
T11 sequence (P49759 148-484): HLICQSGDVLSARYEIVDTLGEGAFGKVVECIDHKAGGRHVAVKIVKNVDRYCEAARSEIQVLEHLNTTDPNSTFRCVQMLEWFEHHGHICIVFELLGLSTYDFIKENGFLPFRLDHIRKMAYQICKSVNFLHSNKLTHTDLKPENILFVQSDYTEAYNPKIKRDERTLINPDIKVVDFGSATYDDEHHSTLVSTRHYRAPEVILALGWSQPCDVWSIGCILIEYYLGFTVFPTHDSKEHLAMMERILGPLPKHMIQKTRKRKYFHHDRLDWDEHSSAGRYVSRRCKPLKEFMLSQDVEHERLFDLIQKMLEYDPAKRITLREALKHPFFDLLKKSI

T1 sequence (Q9NSY1 38-345): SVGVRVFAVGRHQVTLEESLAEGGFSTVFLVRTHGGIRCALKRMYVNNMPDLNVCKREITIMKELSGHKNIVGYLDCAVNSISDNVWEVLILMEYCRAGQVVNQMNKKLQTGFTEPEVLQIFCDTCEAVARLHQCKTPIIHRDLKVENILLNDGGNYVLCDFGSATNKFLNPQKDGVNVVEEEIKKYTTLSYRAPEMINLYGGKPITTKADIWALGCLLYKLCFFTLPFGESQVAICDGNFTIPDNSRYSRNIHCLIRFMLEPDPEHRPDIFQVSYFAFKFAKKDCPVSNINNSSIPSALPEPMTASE
T9 sequence (P45984 7-364): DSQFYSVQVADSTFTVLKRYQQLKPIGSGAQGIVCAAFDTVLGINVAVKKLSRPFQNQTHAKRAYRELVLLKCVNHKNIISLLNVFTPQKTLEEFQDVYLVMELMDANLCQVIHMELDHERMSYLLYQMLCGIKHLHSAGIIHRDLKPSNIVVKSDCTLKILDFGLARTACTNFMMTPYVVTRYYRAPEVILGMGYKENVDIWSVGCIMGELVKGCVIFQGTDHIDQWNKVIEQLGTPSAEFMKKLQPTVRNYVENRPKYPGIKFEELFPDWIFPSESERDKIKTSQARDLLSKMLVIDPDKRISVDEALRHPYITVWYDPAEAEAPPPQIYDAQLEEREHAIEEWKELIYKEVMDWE
T3 sequence (P21802 458-770): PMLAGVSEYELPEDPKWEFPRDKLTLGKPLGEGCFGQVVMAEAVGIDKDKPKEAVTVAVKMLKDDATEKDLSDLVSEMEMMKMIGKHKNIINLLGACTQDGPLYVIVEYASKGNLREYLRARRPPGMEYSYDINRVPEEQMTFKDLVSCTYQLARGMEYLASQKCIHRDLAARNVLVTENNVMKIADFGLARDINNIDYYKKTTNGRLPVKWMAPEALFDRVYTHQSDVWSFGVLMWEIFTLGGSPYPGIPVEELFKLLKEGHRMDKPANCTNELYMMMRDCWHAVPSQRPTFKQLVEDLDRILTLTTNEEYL
T7 sequence (Q2M2I8 27-365): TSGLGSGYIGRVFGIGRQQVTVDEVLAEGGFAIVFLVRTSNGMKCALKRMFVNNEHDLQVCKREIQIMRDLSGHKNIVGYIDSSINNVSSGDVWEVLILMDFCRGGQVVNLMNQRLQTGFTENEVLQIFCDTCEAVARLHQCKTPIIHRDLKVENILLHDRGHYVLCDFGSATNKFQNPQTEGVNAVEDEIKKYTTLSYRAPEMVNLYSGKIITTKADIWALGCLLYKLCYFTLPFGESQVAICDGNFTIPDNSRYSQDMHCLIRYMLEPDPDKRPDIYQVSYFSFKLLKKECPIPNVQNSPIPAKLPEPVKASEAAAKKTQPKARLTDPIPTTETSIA
T2 sequence (Q99683 659-951): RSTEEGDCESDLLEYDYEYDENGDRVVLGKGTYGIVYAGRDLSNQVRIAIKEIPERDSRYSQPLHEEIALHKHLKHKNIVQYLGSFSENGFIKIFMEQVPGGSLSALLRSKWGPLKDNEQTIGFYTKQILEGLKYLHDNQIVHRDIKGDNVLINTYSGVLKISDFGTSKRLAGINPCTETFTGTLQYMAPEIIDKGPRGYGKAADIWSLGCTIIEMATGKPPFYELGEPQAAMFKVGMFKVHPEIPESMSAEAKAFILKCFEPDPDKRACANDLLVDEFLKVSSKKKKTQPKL

| ΔTm at 10 µM (BMP2KA) | ΔTm at 10 µM (MAP3K5A) | ΔTm at 10 µM (FGFR2A) | ΔTm at 10 µM (PKMYT1A) | ΔTm at 10 µM (EPHB3A) | ΔTm at 10 µM (CSNK1DA) | ΔTm at 10 µM (AAK1 (AAK1A)) | ΔTm at 10 µM (DYRK1AA) | ΔTm at 10 µM (MAPK9A) | ΔTm at 10 µM (GSG2A) | ΔTm at 10 µM (CLK1A) | SMILES |
| --- | --- | --- | --- | --- | --- | --- | --- | --- | --- | --- | --- |
| 7.2 °C | 1.4 °C | 2.7 °C | 0.7 °C | 1.4 °C | -0.5 °C | 3.9 °C | 1 °C | -0.1 °C | 0.7 °C | 2.3 °C | O=C(NCc1ccccc1C(F)(F)F)Nc1ccc2cc1OCCOCCNc1ccn3ncc-2c3n1 [compound 27] |
| 9.8 °C | 1.5 °C | 3.1 °C | 0 °C | 0.3 °C | 0.2 °C | 6.3 °C | -0.4 °C | -1.9 °C | 0.7 °C | 2.5 °C | COc1cccc(CNC(=O)Nc2ccc3cc2OCCOCCNc2ccn4ncc-3c4n2)c1 [compound 30] |
| 9.8 °C | 1.4 °C | 3.7 °C | 1.4 °C | -0.1 °C | 0.4 °C | 7.1 °C | -1 °C | 0.3 °C | -0.2 °C | 2.1 °C | O=C(NCc1ccc(Cl)cc1)Nc1ccc2cc1OCCOCCNc1ccn3ncc-2c3n1 [compound 19] |
| 7.5 °C | 2.7 °C | 2.3 °C | 1.9 °C | -0.4 °C | 0 °C | 7.1 °C | 0.7 °C | 0.3 °C | 0.1 °C | 2.8 °C | O=C(NCc1ccc(Cl)cc1F)Nc1ccc2cc1OCCOCCNc1ccn3ncc-2c3n1 [compound 21] |
| 12.2 °C | 2 °C | 4.8 °C | 0.6 °C | 0.8 °C | 0.7 °C | 8.3 °C | 3.8 °C | 1.7 °C | 0.5 °C | 3.4 °C | O=C(NCc1ccccc1)Nc1ccc2cc1OCCOCCNc1ccn3ncc-2c3n1 [compound 16] |

Further lines, the compound ahead of its results:

| SMILES | ΔTm at 10 µM (BMP2KA) | ΔTm at 10 µM (MAP3K5A) | ΔTm at 10 µM (FGFR2A) | ΔTm at 10 µM (PKMYT1A) | ΔTm at 10 µM (EPHB3A) | ΔTm at 10 µM (CSNK1DA) | ΔTm at 10 µM (AAK1 (AAK1A)) | ΔTm at 10 µM (DYRK1AA) | ΔTm at 10 µM (MAPK9A) | ΔTm at 10 µM (GSG2A) | ΔTm at 10 µM (CLK1A) |
| --- | --- | --- | --- | --- | --- | --- | --- | --- | --- | --- | --- |
| COc1ccc(CNC(=O)Nc2ccc3cc2OCCOCCNc2ccn4ncc-3c4n2)cc1F [compound 32] | 10.9 °C | 2 °C | 2.8 °C | 0.4 °C | 0.6 °C | -0.2 °C | 6.3 °C | 0.6 °C | -0.6 °C | 1 °C | 2.7 °C |
| COc1cc(CNC(=O)Nc2ccc3cc2OCCOCCNc2ccn4ncc-3c4n2)ccc1F [compound 33] | 10.2 °C | 2.8 °C | 3.7 °C | 0.2 °C | 0.8 °C | 0.1 °C | 6.4 °C | 0.9 °C | -1.2 °C | 2.8 °C | 4.7 °C |
| COc1ccc(CNC(=O)Nc2ccc3cc2OCCOCCNc2ccn4ncc-3c4n2)cc1 [compound 31] | 12 °C | 1.6 °C | 3.1 °C | 0.3 °C | 0.8 °C | 0.1 °C | 6.7 °C | 0.3 °C | -1.3 °C | 1.2 °C | 2.8 °C |
